Data on 13 compounds can be found in the NIST ThermoML archive (doi:10.1016/j.jct.2017.07.012).

The structures appear in SMILES notation. ± gives the expanded uncertainty stated by the source.

Broadly, the mass density is the mass of a sample divided by its volume.

For data set [1] the following is noted: 101.33 kPa, Liquid, Vibrating tube method.
Data set [2] is described as follows: activity coefficient (dimensionless); of the first substance listed, at infinite dilution; xn = mol fraction of the nth substance listed. Particulars: 101.33 kPa, Liquid, Chromatography, x1 = 0.

In the case of `CCCCn1cc[n+](C)c1.[O-][Cl+3]([O-])([O-])[O-]` [1-butyl-3-methylimidazolium perchlorate], the mass density in data set [1] (303.15 K) worked out at 1247.87 ± 2.4 kg/m3; in data set [1] (313.15 K), 1240.83 ± 2.4 kg/m3; in data set [1] (323.15 K), 1233.88 ± 2.4 kg/m3; in data set [1] (333.15 K), 1227.01 ± 2.4 kg/m3; in data set [1] (343.15 K), 1220.19 ± 2.4 kg/m3; in data set [1] (353.15 K) it was 1213.44 ± 2.4 kg/m3.

In the case of `CC1CCCCC1` [methylcyclohexane] + CCCCn1cc[n+](C)c1.[O-][Cl+3]([O-])([O-])[O-], the activity coefficient turned out to be 46.5 ± 4.9 in data set [2] (303.15 K); 46.7 ± 4.9 in data set [2] (313.15 K); 47 ± 5 in data set [2] (323.15 K); 47.3 ± 5 in data set [2] (333.15 K); 47.3 ± 5 in data set [2] (343.15 K); 47.8 ± 5 in data set [2] (353.15 K).

As for `CCCCCCCCC` [nonane] + CCCCn1cc[n+](C)c1.[O-][Cl+3]([O-])([O-])[O-], the activity coefficient in data set [2] (303.15 K) worked out at 151 ± 16; in data set [2] (313.15 K), 142 ± 15; in data set [2] (323.15 K) it was 142 ± 15; in data set [2] (333.15 K), 137 ± 14; in data set [2] (343.15 K), 135 ± 14; in data set [2] (353.15 K), 133 ± 14.

As to `CCCCCCCC` [octane] + CCCCn1cc[n+](C)c1.[O-][Cl+3]([O-])([O-])[O-], the activity coefficient was found to be 109 ± 12 in data set [2] (303.15 K); 111 ± 12 in data set [2] (313.15 K); 119 ± 12 in data set [2] (323.15 K); 119 ± 13 in data set [2] (333.15 K); 122 ± 13 in data set [2] (343.15 K); 127 ± 13 in data set [2] (353.15 K).

For `CCCCCO` [pentan-1-ol] + CCCCn1cc[n+](C)c1.[O-][Cl+3]([O-])([O-])[O-], the figures for the activity coefficient in data set [2] (333.15 K), in data set [2] (343.15 K) and in data set [2] (353.15 K) were 3.88 ± 0.41, 3.55 ± 0.37 and 3.23 ± 0.34, respectively.

Regarding `CCCO` [propan-1-ol] + CCCCn1cc[n+](C)c1.[O-][Cl+3]([O-])([O-])[O-], the activity coefficient in data set [2] (323.15 K) is 2.05 ± 0.22; in data set [2] (333.15 K), 1.99 ± 0.21; in data set [2] (343.15 K), 1.87 ± 0.2; in data set [2] (353.15 K), 1.82 ± 0.19.

As for `CC(C)O` [propan-2-ol] + CCCCn1cc[n+](C)c1.[O-][Cl+3]([O-])([O-])[O-], the activity coefficient turned out to be 2.27 ± 0.24 in data set [2] (303.15 K); 2.18 ± 0.23 in data set [2] (313.15 K); 2.06 ± 0.22 in data set [2] (323.15 K); 2.06 ± 0.22 in data set [2] (333.15 K); 1.93 ± 0.2 in data set [2] (343.15 K); 1.92 ± 0.2 in data set [2] (353.15 K).

For `C=Cc1ccccc1` [styrene] + CCCCn1cc[n+](C)c1.[O-][Cl+3]([O-])([O-])[O-], the activity coefficient in data set [2] (333.15 K) was determined as 2.29 ± 0.24; in data set [2] (343.15 K) it was 2.42 ± 0.25; in data set [2] (353.15 K), 2.5 ± 0.26.

For `ClC(Cl)(Cl)Cl` [tetrachloromethane] + CCCCn1cc[n+](C)c1.[O-][Cl+3]([O-])([O-])[O-], the activity coefficient in data set [2] (303.15 K) was found to be 3.61 ± 0.38; in data set [2] (313.15 K), 3.93 ± 0.41; in data set [2] (323.15 K), 4.1 ± 0.43; in data set [2] (333.15 K), 4.22 ± 0.44; in data set [2] (343.15 K), 4.6 ± 0.48; in data set [2] (353.15 K) it was 4.67 ± 0.49.

Turning to `C1CCOC1` [tetrahydrofuran] + CCCCn1cc[n+](C)c1.[O-][Cl+3]([O-])([O-])[O-], the activity coefficient in data set [2] (303.15 K) turned out to be 1.5 ± 0.16; in data set [2] (313.15 K), 1.57 ± 0.16; in data set [2] (323.15 K), 1.67 ± 0.17; in data set [2] (333.15 K), 1.94 ± 0.2; in data set [2] (343.15 K) it was 1.94 ± 0.2; in data set [2] (353.15 K), 2.06 ± 0.22.

As for `Cc1ccccc1` [toluene] + CCCCn1cc[n+](C)c1.[O-][Cl+3]([O-])([O-])[O-], the activity coefficient was 2.96 ± 0.31 in data set [2] (313.15 K); 3.1 ± 0.33 in data set [2] (323.15 K); 3.14 ± 0.33 in data set [2] (333.15 K); 3.29 ± 0.35 in data set [2] (343.15 K); 3.38 ± 0.36 in data set [2] (353.15 K).

`ClC(Cl)Cl` [trichloromethane] + CCCCn1cc[n+](C)c1.[O-][Cl+3]([O-])([O-])[O-]: the activity coefficient in data set [2] (303.15 K) came to 0.78 ± 0.08; in data set [2] (313.15 K), 0.87 ± 0.09; in data set [2] (323.15 K) it was 0.93 ± 0.09; in data set [2] (333.15 K) it was 0.98 ± 0.1; in data set [2] (343.15 K), 1.1 ± 0.11; in data set [2] (353.15 K), 1.16 ± 0.12.

Regarding `O` [water] + CCCCn1cc[n+](C)c1.[O-][Cl+3]([O-])([O-])[O-], the values for the activity coefficient in data set [2] (333.15 K), in data set [2] (343.15 K) and in data set [2] (353.15 K) were 1.02 ± 0.1, 1.01 ± 0.1 and 1 ± 0.1, respectively.
